From patent US20030059852A1, “Modulation of integrin-mediated signal transduction” (COR Therapeutics, Inc., priority 1995, published 2003) come the findings set out here.

Each structure is given as a SMILES string.

One assay relates to platelets. Kind of assay: Platelet aggregation induced by agonists. Format: cell-based, human. The method, then: (§1) Blood from healthy volunteers was collected into ⅙^th volume of 85 mM sodium citrate, 111 mM dextrose and 71 mM citric acid supplemented with 50 ng/ml PGI2 and 0.6 U/ml apyrase. After centrifugation of the blood at 160× g for 20 minutes the platelet rich plasma was removed and subjected to further centrifugation at 730× g for 10 minutes to sediment the platelets. Platelets were then resuspended in 13 mM trisodium citrate, 120 mM NaCl and 30 mM dextrose pH 7.0 and washed x 2 with this buffer. The platelets were then resuspended in 12 mM NaHCO3, 138 mM NaCl, 5.5 mM dextrose, 2.9 mM KCl, 10 mM Hepes, 1 mM CaCl2, 0.3 U/ml apyrase and allowed to recover for 1 hour at 37° C. Resting platelets were activated by the addition of 1 nM thrombin with stirring until aggregates were visible (1-3 minutes).
Additional experiments have been performed using a 2-D gel electrophoresis protocol and have yielded further information on the tyrosine phosphorylation of GPIIIa (FIG. 3). GPIIIa tyrosine phosphorylation can be observed in platelets induced to aggregate using agonists other than thrombin. […] In all cases platelet aggregation appears to be a prerequisite for GPIIIa tyrosine phosphorylation.

In the next assay the test system is GP IIIa (β3). In words: In vivo tyrosine phosphorylation of GPIIIa, 2-D gel electrophoresis and anti-phosphotyrosine immunoblotting. The format is cell-based, human. The procedure:
as §1, with “Resting platelets were activated by the addition of 1 nM thrombin with stirring until aggregates were visible (1-3 minutes).” left out
330 μl of 3× non-reducing sample buffer containing 1 mM sodium vanadate was added to 1 ml of control or thrombin-aggregated platelets. […] This membrane was then immunoblotted with anti-phosphotyrosine antibodies and the relative amount of phosphorylated GPIIIa was determined by densitometry for both control and thrombin-aggregated samples. […]
However, a three to six fold enhancement of phosphorylation of GPIIIa was observed when platelets were lysed in a high concentration of SDS and the proteins immediately separated by 2-D gel electrophoresis prior to transfer to a nitrocellulose membrane, and immunoblotting to detect phosphorylated proteins with phosphotyrosine antibodies and with a GPIIIa antibody to quantitate GPIIIa. […]
(Immunoblotting shows a protein as a band on a membrane.)

For `Nc1ncnc2c1ncn2[C@@H]1O[C@H](COP(=O)(O)OP(=O)(O)O)[C@@H](O)[C@H]1O` [ADP], in the assay on platelets, the platelet aggregation result was “does not induce platelet aggregation”. In addition, in the assay on platelets (platelets stimulated with the indicated agonist), the Aggregation entry is reported as “no”. The GPIIIa tyrosine phosphorylation result with GP IIIa (β3) (2-D gel electrophoresis protocol) is listed as “no increase”. Besides, the “β3 Phosphorylation” value in the assay with GP IIIa (β3) (platelets stimulated with the indicated agonist, 2-D gel, anti-phosphotyrosine immunoblotting) is “no”.
